Measured values reported in PubChem BioAssay AID2060506 (Molecular Pharmacology Branch, DTP, NCI, 2025).

Tested on: 598228-144-R-J1-PDC complex spheroid viability
Test: Anticancer human tumor 598228-144-R-J1-PDC patient-derived serous endometrial adenocarcinoma cell line growth inhibition [GQUAD]
Settings: for IC50: curve of first compound; for viability, T/C: stronger effect = lower value
Outline: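 Viability of tumor cells grown as complex spheroids with endothelial and stromal cells, exposed to drug combinations. Top concentration at or near clinical Cmax (else 10 microM), diluted in half-log increments.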

[1] = second compound 0.0316 µM, first compound 0.0316 µM
[2] = second compound 0.0316 µM, first compound 0.316 µM
[3] = second compound 0.1 µM, first compound 0.0316 µM
[4] = second compound 0.1 µM, first compound 0.316 µM
[5] = second compound 0.316 µM, first compound 0.0316 µM
[6] = second compound 0.316 µM, first compound 0.316 µM
[7] = second compound 1 µM, first compound 0.0316 µM
[8] = second compound 1 µM, first compound 0.316 µM
[9] = second compound 3.16 µM, first compound 0.0316 µM
[10] = second compound 3.16 µM, first compound 0.316 µM
[11] = second compound 10 µM, first compound 0.0316 µM
[12] = second compound 10 µM, first compound 0.316 µM
[13] = second compound 0.0316 µM, first compound 0.000999 µM
[14] = second compound 0.0316 µM, first compound 0.00316 µM
[15] = second compound 0.0316 µM, first compound 0.00999 µM
[16] = second compound 0.0316 µM, first compound 0.0999 µM
[17] = second compound 0.1 µM, first compound 0.000999 µM
[18] = second compound 0.1 µM, first compound 0.00316 µM
[19] = second compound 0.1 µM, first compound 0.00999 µM
[20] = second compound 0.1 µM, first compound 0.0999 µM
[21] = second compound 0.316 µM, first compound 0.000999 µM
[22] = second compound 0.316 µM, first compound 0.00316 µM
[23] = second compound 0.316 µM, first compound 0.00999 µM
[24] = second compound 0.316 µM, first compound 0.0999 µM
[25] = second compound 1 µM, first compound 0.000999 µM
[26] = second compound 1 µM, first compound 0.00316 µM
[27] = second compound 1 µM, first compound 0.00999 µM
[28] = second compound 1 µM, first compound 0.0999 µM
[29] = second compound 3.16 µM, first compound 0.000999 µM
[30] = second compound 3.16 µM, first compound 0.00316 µM
[31] = second compound 3.16 µM, first compound 0.00999 µM
[32] = second compound 3.16 µM, first compound 0.0999 µM
[33] = second compound 10 µM, first compound 0.000999 µM
[34] = second compound 10 µM, first compound 0.00316 µM
[35] = second compound 10 µM, first compound 0.00999 µM
[36] = second compound 10 µM, first compound 0.0999 µM
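Note: spheroids exposed to the agents for one week before reading.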
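Throughout, for viability, T/C: percent of vehicle DMSO control viability so 100% = untreated growth.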

## C=CC(=O)N1CCN(c2nc(=O)n(-c3c(C)ccnc3C(C)C)c3nc(-c4c(O)cccc4F)c(F)cc23)C(C)C1 (stereo unspecified) + Cc1[nH]c2ccc(F)cc2c1-c1nc2c3cccnc3c3ncccc3c2[nH]1
Second compound 0.0316 µM
  IC50: > 10000 nM
Second compound 0.1 µM
  IC50: > 10000 nM
Second compound 0.316 µM
  IC50: > 10000 nM
Second compound 1 µM
  IC50: > 10000 nM
Second compound 3.16 µM
  IC50: < 31.6 nM
Second compound 10 µM
  IC50: > 10000 nM
[1]
  viability, T/C: 119%
Second compound 0.0316 µM, first compound 0.1 µM
  viability, T/C: 95%
[2]
  viability, T/C: 105%
Second compound 0.0316 µM, first compound 1 µM
  viability, T/C: 132%
Second compound 0.0316 µM, first compound 3.16 µM
  viability, T/C: 136%
Second compound 0.0316 µM, first compound 10 µM
  viability, T/C: 123%
[3]
  viability, T/C: 88.4%
Second compound 0.1 µM, first compound 0.1 µM
  viability, T/C: 110%
[4]
  viability, T/C: 102%
Second compound 0.1 µM, first compound 1 µM
  viability, T/C: 129%
Second compound 0.1 µM, first compound 3.16 µM
  viability, T/C: 136%
Second compound 0.1 µM, first compound 10 µM
  viability, T/C: 151%
[5]
  viability, T/C: 75.9%
Second compound 0.316 µM, first compound 0.1 µM
  viability, T/C: 94.8%
[6]
  viability, T/C: 99.5%
Second compound 0.316 µM, first compound 1 µM
  viability, T/C: 108%
Second compound 0.316 µM, first compound 3.16 µM
  viability, T/C: 159%
Second compound 0.316 µM, first compound 10 µM
  viability, T/C: 108%
[7]
  viability, T/C: 58.6%
Second compound 1 µM, first compound 0.1 µM
  viability, T/C: 62.9%
[8]
  viability, T/C: 63.7%
Second compound 1 µM, first compound 1 µM
  viability, T/C: 75.6%
Second compound 1 µM, first compound 3.16 µM
  viability, T/C: 89.3%
Second compound 1 µM, first compound 10 µM
  viability, T/C: 101%
[9]
  viability, T/C: 36.1%
Second compound 3.16 µM, first compound 0.1 µM
  viability, T/C: 37.2%
[10]
  viability, T/C: 55.9%
Second compound 3.16 µM, first compound 1 µM
  viability, T/C: 57.7%
Second compound 3.16 µM, first compound 3.16 µM
  viability, T/C: 59.5%
Second compound 3.16 µM, first compound 10 µM
  viability, T/C: 70%
[11]
  viability, T/C: 57.1%
Second compound 10 µM, first compound 0.1 µM
  viability, T/C: 75.6%
[12]
  viability, T/C: 63.8%
Second compound 10 µM, first compound 1 µM
  viability, T/C: 69.1%
Second compound 10 µM, first compound 3.16 µM
  viability, T/C: 80.9%
Second compound 10 µM, first compound 10 µM
  viability, T/C: 103%

## CC[C@@]1(O)C(=O)OCc2c1cc1n(c2=O)Cc2cc3c(CN(C)C)c(O)ccc3nc2-1 + Cc1[nH]c2ccc(F)cc2c1-c1nc2c3cccnc3c3ncccc3c2[nH]1
Second compound 0.0316 µM
  IC50: > 316 nM
Second compound 0.1 µM
  IC50: > 316 nM
Second compound 0.316 µM
  IC50: > 316 nM
Second compound 1 µM
  IC50: 22.9 nM
Second compound 3.16 µM
  IC50: < 0.999 nM
Second compound 10 µM
  IC50: 31 nM
[13]
  viability, T/C: 106%
[14]
  viability, T/C: 105%
[15]
  viability, T/C: 93.5%
[1]
  viability, T/C: 90.7%
[16]
  viability, T/C: 63.1%
[2]
  viability, T/C: 71.5%
[17]
  viability, T/C: 104%
[18]
  viability, T/C: 95.4%
[19]
  viability, T/C: 84.4%
[3]
  viability, T/C: 88.7%
[20]
  viability, T/C: 58%
[4]
  viability, T/C: 62.3%
[21]
  viability, T/C: 86.8%
[22]
  viability, T/C: 83.7%
[23]
  viability, T/C: 61.9%
[5]
  viability, T/C: 64.6%
[24]
  viability, T/C: 75%
[6]
  viability, T/C: 52.3%
[25]
  viability, T/C: 64.6%
[26]
  viability, T/C: 76.8%
[27]
  viability, T/C: 59.3%
[7]
  viability, T/C: 44.7%
[28]
  viability, T/C: 53.4%
[8]
  viability, T/C: 41.2%
[29]
  viability, T/C: 39.1%
[30]
  viability, T/C: 57.1%
[31]
  viability, T/C: 39.9%
[9]
  viability, T/C: 35.7%
[32]
  viability, T/C: 33.6%
[10]
  viability, T/C: 31.4%
[33]
  viability, T/C: 71.6%
[34]
  viability, T/C: 58.9%
[35]
  viability, T/C: 63.3%
[11]
  viability, T/C: 41.5%
[36]
  viability, T/C: 50.1%
[12]
  viability, T/C: 34.7%

## CCc1c2c(nc3ccc(O)cc13)-c1cc3c(c(=O)n1C2)COC(=O)[C@]3(O)CC + Cc1[nH]c2ccc(F)cc2c1-c1nc2c3cccnc3c3ncccc3c2[nH]1
Second compound 0.0316 µM
  IC50: 21 nM
Second compound 0.1 µM
  IC50: 13.9 nM
Second compound 0.316 µM
  IC50: 37.2 nM
Second compound 1 µM
  IC50: 2.57 nM
Second compound 3.16 µM
  IC50: < 0.999 nM
Second compound 10 µM
  IC50: 2.09 nM
[13]
  viability, T/C: 74.7%
[14]
  viability, T/C: 73.5%
[15]
  viability, T/C: 53.8%
[1]
  viability, T/C: 42.9%
[16]
  viability, T/C: 37.9%
[2]
  viability, T/C: 13.8%
[17]
  viability, T/C: 67%
[18]
  viability, T/C: 67.6%
[19]
  viability, T/C: 55.4%
[3]
  viability, T/C: 34.9%
[20]
  viability, T/C: 31.3%
[4]
  viability, T/C: 19.5%
[21]
  viability, T/C: 75.9%
[22]
  viability, T/C: 62.7%
[23]
  viability, T/C: 66.3%
[5]
  viability, T/C: 53.4%
[24]
  viability, T/C: 34.3%
[6]
  viability, T/C: 21.4%
[25]
  viability, T/C: 55%
[26]
  viability, T/C: 47.3%
[27]
  viability, T/C: 43%
[7]
  viability, T/C: 37.9%
[28]
  viability, T/C: 27.8%
[8]
  viability, T/C: 17.8%
[29]
  viability, T/C: 40.6%
[30]
  viability, T/C: 36.1%
[31]
  viability, T/C: 29.7%
[9]
  viability, T/C: 29.2%
[32]
  viability, T/C: 13.1%
[10]
  viability, T/C: 8.4%
[33]
  viability, T/C: 57%
[34]
  viability, T/C: 45.1%
[35]
  viability, T/C: 38.8%
[11]
  viability, T/C: 29.7%
[36]
  viability, T/C: 24.1%
[12]
  viability, T/C: 20.4%
